Laboratory results from PMC5515508, “Benzene Probes in Molecular Dynamics Simulations Reveal Novel Binding Sites for Ligand Design” (The Journal of Physical Chemistry Letters, 2016).
Bridge positions count the residues as written; N and C are the ends. Square brackets hold non-standard residues; d marks the D form. Peptide text beside a SMILES is read from it. R5 = C=CCCC[C@@](C)(N)C(=O)O

Molecular target: T1, MDM2 (1-125) (Homo sapiens, UniProt Q00987)
T1 construct: cleaved MDM2 (1-125) was purified to ~90% purity; GST (N, cleaved yes); made in house; host or cells: Escherichia coli BL21(DE3)
T1 sequence (Q00987 1-125): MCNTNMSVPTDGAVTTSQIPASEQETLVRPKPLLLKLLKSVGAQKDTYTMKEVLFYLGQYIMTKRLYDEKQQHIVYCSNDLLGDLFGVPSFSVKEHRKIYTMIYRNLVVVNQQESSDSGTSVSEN
Assay: Competitive fluorescence polarization titration against FAM-labeled 12/1 peptide
Assay type: binding
Conditions: read-out: Dissociation constant (Kd)
Method: [P] is the protein concentration (MDM2), [L] is the labeled peptide concentration, r is the
Apparent Kd values were determined for a variety of molecules via competitive fluorescence […]
triplicate. Curve-fitting was carried out using Prism 4.0 (GraphPad).

| Kd [nM] | SMILES |
| --- | --- |
| 9.9 ± 1.5 | CC(=O)N[C@H](C(=O)N[C@@H](CO)C(=O)N[C@@H](Cc1ccccc1)C(=O)N[C@]1(C)CCCC=CCCC[C@](C)(C(=O)N[C@@H](CC(C)C)C(=O)N[C@@H](CC(C)C)C(=O)N2CCC[C@H]2C(=O)N[C@@H](CCC(=O)O)C(=O)N[C@@H](CC(N)=O)C(=O)N[C@@H](Cc2ccccc2)C(N)=O)NC(=O)[C@H](Cc2c[nH]c3ccccc23)NC(=O)[C@H](Cc2ccc(O)cc2)NC(=O)[C@H](CCC(=O)O)NC1=O)[C@@H](C)O [YS-1] (Ac-TSF[R5]EYW[R5]LLPENF-NH2; staple 4-8) |
| 8.8 ± 0.6 | CC(=O)N[C@H](C(=O)N[C@@H](CO)C(=O)N[C@@H](Cc1ccccc1)C(=O)N[C@]1(C)CCCC=CCCC[C@](C)(C(=O)N[C@@H](CC(C)C)C(=O)N[C@@H](CC(C)C)C(=O)N[C@@H](CO)C(=O)N[C@@H](CCC(=O)O)C(=O)N[C@@H](CC(N)=O)C(=O)N[C@@H](Cc2ccc(O)cc2)C(N)=O)NC(=O)[C@H](Cc2c[nH]c3ccccc23)NC(=O)[C@H](Cc2ccc(O)cc2)NC(=O)[C@H](CCC(=O)O)NC1=O)[C@@H](C)O [YS-6] (Ac-TSF[R5]EYW[R5]LLSENY-NH2; staple 4-8) |
| 11.6 ± 0.9 | CC(=O)N[C@H](C(=O)N[C@@H](CO)C(=O)N[C@@H](Cc1ccccc1)C(=O)N[C@]1(C)CCCC=CCCC[C@](C)(C(=O)N[C@@H](CC(C)C)C(=O)N[C@@H](CC(C)C)C(=O)N[C@@H](CO)C(=O)N[C@@H](CCC(=O)O)C(=O)N[C@@H](CC(N)=O)C(=O)N[C@@H](Cc2ccccc2)C(N)=O)NC(=O)[C@H](Cc2c[nH]c3ccccc23)NC(=O)[C@H](Cc2ccc(O)cc2)NC(=O)[C@H](CCC(=O)O)NC1=O)[C@@H](C)O [YS-5] (Ac-TSF[R5]EYW[R5]LLSENF-NH2; staple 4-8) |
| 27.7 ± 1.3 | CC(=O)N[C@H](C(=O)N[C@@H](CO)C(=O)N[C@@H](Cc1ccccc1)C(=O)N[C@]1(C)CCCC=CCCC[C@](C)(C(=O)N[C@@H](CC(C)C)C(=O)N[C@@H](CC(C)C)C(=O)N2CCC[C@H]2C(=O)N[C@@H](CCC(=O)O)C(=O)N[C@@H](CC(N)=O)C(=O)N[C@@H](C)C(N)=O)NC(=O)[C@H](Cc2c[nH]c3ccccc23)NC(=O)[C@H](Cc2ccc(O)cc2)NC(=O)[C@H](CCC(=O)O)NC1=O)[C@@H](C)O [YS-4] (Ac-TSF[R5]EYW[R5]LLPENA-NH2; staple 4-8) |
| 36.1 ± 2.9 | CC(=O)N[C@H](C(=O)N[C@@H](CO)C(=O)N[C@@H](Cc1ccccc1)C(=O)N[C@]1(C)CCCC=CCCC[C@](C)(C(=O)N[C@@H](CC(C)C)C(=O)N[C@@H](CC(C)C)C(=O)N2CCC[C@H]2C(=O)N[C@@H](CCC(=O)O)C(=O)N[C@@H](CC(N)=O)C(N)=O)NC(=O)[C@H](Cc2c[nH]c3ccccc23)NC(=O)[C@H](Cc2ccc(O)cc2)NC(=O)[C@H](CCC(=O)O)NC1=O)[C@@H](C)O [YS-3] (Ac-TSF[R5]EYW[R5]LLPEN-NH2; staple 4-8) |
| 7.4 ± 1.5 | CC(=O)N[C@H](C(=O)N[C@@H](CO)C(=O)N[C@@H](Cc1ccccc1)C(=O)N[C@]1(C)CCCC=CCCC[C@](C)(C(=O)N[C@@H](CC(C)C)C(=O)N[C@@H](CC(C)C)C(=O)N2CCC[C@H]2C(=O)N[C@@H](CCC(=O)O)C(=O)N[C@@H](CC(N)=O)C(=O)N[C@@H](Cc2ccc(O)cc2)C(N)=O)NC(=O)[C@H](Cc2c[nH]c3ccccc23)NC(=O)[C@H](Cc2ccc(O)cc2)NC(=O)[C@H](CCC(=O)O)NC1=O)[C@@H](C)O [YS-2] (Ac-TSF[R5]EYW[R5]LLPENY-NH2; staple 4-8) |
